{"source": "patent US20050075398A1", "about": "“Neuroprotectin D1 protects against cellular apoptosis, stroke damage, alzheimer's disease and retinal diseases” (priority 2003, published 2005)", "key": {"AP1-DNA binding activity": {"system": "AP1-DNA binding activity", "assay": "EMSA of AP1 in IL-1β-exposed human neural progenitor cells", "format": "cell-based", "details": "HN progenitor cells", "description": "(§1) Human neural (HN) progenitor cells in primary culture. HN cells were grown to ˜70% confluence (˜50,000 cells per 3.5-cm diameter well) in 6-well COSTAR plates at 37° C., 5% CO2/20% O2/75% N2 in humidified air at 1 atm (normoxic conditions) in NPMM medium (Clonetics CC-4241) supplemented with hFGF, NSF-1, hEGF, GA-1000, as described by the manufacturer (Clonetics, Walkersville, Md.). HN cells tested negative for HIV-1, hepatitis B and C, mycoplasma, bacteria, yeast, and fungi, and positive for the glial and neuronal markers GFAP, MAP2, and β-tubulin III (Clonetics). […]\n(§2) Electrophoretic mobility-shift assay (EMSA) of human AP1, HIF-1α, NF-κBp50/p65, and STAT-1α. Nuclear protein extracts (NPXTs) were prepared from one to three 3.5 cm-diameter wells of HN cells and quantitated. NPXTs (5 μg) derived from HN cells were incubated with[γ-^32P]-ATP (˜3000 Ci/mmol)-end-labeled AP1, HIF-1α, NF-κκBp50/p65, or STAT-1α consensus and mutant oligonucleotides in 5-μl volumes, reacted for 30 min on ice, analyzed on 5% or 10% acrylamide/90 mM Tris-borate pH 8.4, 1 mM EDTA (TBE) gels, dried onto 2-mm Whatman filter paper at 80° C. for 2 h, and phosphorimaged using a Typhoon Variable Mode Imager (Amersham Pharmacia Biotech, Piscataway, N.J. )."}, "[1]": {"system": "IL-1β-induced NF-κB activation", "assay": "EMSA of NF-κB in IL-1β-exposed human neural progenitor cells", "format": "cell-based", "details": "HN progenitor cells, IL-1β 10 ng/ml 3 h", "description": "as §1, §2"}, "TNFα gene expression": {"system": "TNFα gene expression", "assay": "HGU133 GeneChip DNA array in HN cells: TNFα", "format": "cell-based, human", "details": "Aβ42 25 μM, DHA 50 nM or NPD1 50 nM, 18 h, nsc = no significant change"}, "Bfl-1(A1) protein": {"system": "Bfl-1(A1) protein", "assay": "Western analysis of Bfl-1(A1) in HN cells", "format": "cell-based, human", "details": "50 nM, p<0.05", "description": "Western Analysis. Total protein was extracted, and 25 μg of protein was analyzed by Western blots using human Bcl-2, Bfl-1 (A1) and actin antibodies. […] Human specific anti-Bfl-1(A1)[Cat. No. sc-8351] was obtained from Santa Cruz Biotechnology (Santa Cruz, Calif.). For Western analysis, signal-intensity data were gathered by phosphorimaging onto molecular imaging screens (FUJIFILM) for 3-36 h using a Typhoon Molecular Imager system (Amersham Biosciences) as described in Bazan and Lukiw, 2002.\nTo confirm the above changes in Bcl-2 and Bfl-1(A1), Western analysis was performed using anti-Bcl-2, anti-Bfl-1(A1), and anti-actin primary antibodies (B3170 Sigma Life Science, sc-8351 Santa Cruz, and A2103 Sigma, respectively). The results of the Western analysis confirm up-regulation of Bcl-2 and Bfl-1(A1) anti-apoptotic proteins over actin controls in DHA- and NPD1-treated cells."}, "[2]": {"system": "myeloperoxidase immunoreactivity (PMN leukocytes)", "assay": "Immunohistochemistry of myeloperoxidase after MCA-O", "format": "in vivo, mouse", "details": "infusion 0.4 μg over 48 h; 1 h MCA-O, 48 h reperfusion", "description": "Immunohistochemistry of myeloperoxidase to assess leukocyte infiltration. After MCA-O, mice were infused by Alzet mini-pumps with vehicle or 10,17S-docosatriene (NPD1). After 48 h, mice were anesthetized and killed by intracardial perfusion of ice-cold saline followed by 10% neutral buffered formalin. Brain tissues were allowed to equilibrate overnight in 4% buffered formalin, followed by 30% sucrose in 0.1 M PBS. Frozen sections were made at 10 μm thickness and mounted on glass slides. Sections were permeablized with 0.6% Triton X-100 for 10 min, washed in PBS, and blocked in 2% goat serum in PBS for 30 min. Incubation with myeloperoxidase/FITC-conjugated antibody (DAKO A/S, Denmark) was performed at 1:200 dilution for 2 h. Sections were washed in Tween-20 in PBS then mounted in Vectashield (Vector, Calif.). Images were recorded by deconvolution microscope (Intelligent Imaging Innovations, Denver, Colo.).\nTo determine whether 10,17S-docosatriene (NPD1) affected brain ischemia-reperfusion-induced PMN infiltration, either DHA or 10,17S-docosatriene (NPD1) was constantly infused into the third ventricle of a mouse brain during 48 h of reperfusion. […] The data shown represent averages± SD of the indicated number (n) of individual mice. Immunocytochemical changes in polymorphonuclear leukocytes were shown by a green fluorescence that indicated myeloperoxidase immunoreactivity. […]"}, "caspase-3": {"system": "caspase-3", "assay": "Caspase-3 cleavage in ARPE-19 cells stably transfected with lentivirus DEVD construct", "details": "50 nM", "source_text": "The values shown are the average of triplicate samples in three independent experiments."}, "ARPE-19 cells": {"system": "ARPE-19 cells", "assay": "ELISA detection of mono- and oligonucleosomes", "format": "cell-based, human", "details": "50 nM", "description": "Assessment of apoptosis by mono- and oligonucleosome analysis: Cells were homogenized in a lysis buffer and 20-μl aliquots were applied on streptavidin-coated 96-well plates. Cells were incubated for 2 h with 80 μl incubation buffer containing the monoclonal antibodies directed against DNA and histones for detection of mono- and oligonucleosomes (Roche Diagnostics Corporation Cat. # 1774425). After the unreacted antibodies were washed away, the immune complexes of DNA-histone-antibodies remain bound to the streptavidin-coated plates, where detection was attained by horseradish-peroxidase reaction.\nDNA fragmentation was also detected by ELISA detection of mono- and oligonucleosomes in ARPE cells (Roche Diagnostics Corporation Cat. # 1774425). Cells were homogenized in a lysis buffer, and 20-μl aliquots were applied on streptavidin-coated 96-well plates. Cells were incubated for 2 h with 80 μl incubation buffer containing the monoclonal antibodies directed against DNA and histones for detection of mono- and oligonucleosomes. After the unreacted antibodies were washed away, the immune complexes of DNA-histone-antibodies remained bound to the streptavidin-coated plates, where detection is obtained through horseradish-peroxidase reaction. Quantitative analysis was performed in a Spectramax-250 (Molecular Devices) spectrophotometer."}}, "data": [{"smiles": "CC/C=C\\C[C@H](O)\\C=C/C=C/C=C/[C@H](O)C/C=C\\C/C=C\\CCC(=O)O", "note": "[NPD1, 10,17S-docosatriene]", "values": [{"measurement": "effect on IL-1β-induced AP1-DNA binding activity", "setting": "AP1-DNA binding activity", "value": "did not affect"}, {"measurement": "concentration at which inhibitory effect on NF-κB is seen (as low as)", "setting": "[1]", "value": 0.3, "unit": "nM"}, {"measurement": "effect on IL-1β-induced NF-κB activation", "setting": "[1]; concentration-dependent", "value": "down-regulated"}, {"measurement": "TNFα gene expression, fold change over untreated controls", "setting": "TNFα gene expression", "value": "nsc"}, {"measurement": "Bfl-1(A1) protein increase over controls, normalized with actin", "setting": "Bfl-1(A1) protein", "value": 5.4, "unit": "fold"}, {"measurement": "green fluorescence (myeloperoxidase immunoreactivity), ipsilateral brain", "setting": "[2]", "value": "surprisingly large reduction"}, {"measurement": "inhibition of caspase-3 activation", "setting": "caspase-3; 400 μM H2O2 with TNFα", "value": 60, "unit": "%"}, {"measurement": "inhibition of caspase-3 activation", "setting": "caspase-3; 800 μM H2O2 with TNFα", "value": 50, "unit": "%"}, {"measurement": "effect on TNFα/H2O2-induced accumulation of mono- and oligonucleosomes", "setting": "ARPE-19 cells", "value": "inhibited"}]}]}
